Measured values reported in patent US6355799B1, “Substituted benzene compounds, process for their preparation, and herbicidal and defoliant compositions containing them” (ISK Americas Incorporated, priority 1997, dated 2002).

Legend:
Assay type in all cases: in vivo
[1] = tested on: redroot pigweed (Amaranthus retroflexus, AMARE); assay: Pre-emerge test, greenhouse herbicide activity screening; settings: pre-emerge, rated 14 days after application, 0 = no damage, 100 = complete death
Method in brief: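 Sandy loam pots; pre-emerge: sown 1 d pre-spray, surface-watered after, then bottom-watered. Post-emerge: sown 8–21 d before, 2–3 leaf stage, + 0.25% v/v NIS, bottom-watered. Acetone, 187 l/ha track spray, 15–1000 g ai/ha. 0–100 injury score, day 14.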

[2] = tested on: barnyardgrass (Echinochloa crus-galli, ECHCG); assay: as above; settings: pre-emerge, rated 14 days after application, 0 = no damage, 100 = complete death
Method in brief: (§1)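 Fourteen days after spraying, crop and weed injury was graded visually from 0, no effect, to 100, every plant dead. Test substances were dissolved in acetone and applied at 15–1000 g ai/ha with a flat-fan nozzle. Application was either pre-emergence, one day after sowing, or post-emergence at the 2–3 leaf stage.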

[3] = tested on: common ragweed (Ambrosia artemisizfolia L., AMBEL); assay: as above; settings: pre-emerge, rated 14 days after application, 0 = no damage, 100 = complete death
Method in brief: as §1

[4] = tested on: green foxtail (Setaria viridis, SETVI); assay: as above; settings: pre-emerge, rated 14 days after application, 0 = no damage, 100 = complete death
Method in brief: as §1

[5] = tested on: ivyleaf morningglory (Ipomoea hederacea, IPOHE); assay: as above; settings: pre-emerge, rated 14 days after application, 0 = no damage, 100 = complete death
Method in brief: as §1

[6] = tested on: johnsongrass (Sorghum halepense, SORHA); assay: as above; settings: pre-emerge, rated 14 days after application, 0 = no damage, 100 = complete death
Method in brief: as §1

[7] = tested on: lambsquarters (Chenopodium album, CHEAL); assay: as above; settings: pre-emerge, rated 14 days after application, 0 = no damage, 100 = complete death
Method in brief: as §1

[8] = tested on: large crabgrass (Digitaria sanguinalis, DIGSA); assay: as above; settings: pre-emerge, rated 14 days after application, 0 = no damage, 100 = complete death
Method in brief: as §1

[9] = tested on: sicklepod (Cassia obtusifolia, CASOB); assay: as above; settings: pre-emerge, rated 14 days after application, 0 = no damage, 100 = complete death
Method in brief: as §1

[10] = tested on: velvetleaf (Abutilon theophrasti, ABUTH); assay: as above; settings: pre-emerge, rated 14 days after application, 0 = no damage, 100 = complete death
Method in brief: as §1

[11] = tested on: field corn (Zea mays L., var. Dekalb 535, CORN); assay: Pre-emerge test, crop safety; settings: pre-emerge, rated 14 days after application, 0 = no damage, 100 = complete death
Method in brief: (§2)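 Visual ratings on a 0-100 scale (0 no damage, 100 all plants dead) were taken at 14 days after treatment. Rates of 15-1000 g ai/ha in acetone, 187 l/ha, were sprayed onto soil one day after planting (pre-emerge) or onto 2-3 leaf plants with 0.25% v/v surfactant (post-emerge).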

[12] = tested on: upland rice (Oryza sp., var. Tebonnet, RICE); assay: Pre-emerge test, crop safety; settings: pre-emerge, rated 14 days after application, 0 = no damage, 100 = complete death
Method in brief: as §2

[13] = tested on: barnyardgrass (Echinochloa crus-galli, ECHCG); assay: Post-emerge test, greenhouse herbicide activity screening; settings: phytotoxicity rating 0-100 (0 no damage, 100 complete death), 14 days after application
Method in brief: (§3)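 Rating: 0–100 visual injury, 14 DAA. Application: acetone, 187 l/ha, 15–1000 g ai/ha, flat-fan track sprayer with nozzle 40–45 cm above soil or canopy. Post-emerge runs used 0.25% v/v surfactant on 2–3 leaf plants.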

[14] = tested on: common ragweed (Ambrosia artemisizfolia L., AMBEL); assay: as above; settings: phytotoxicity rating 0-100 (0 no damage, 100 complete death), 14 days after application
Method in brief: as §3

[15] = tested on: green foxtail (Setaria viridis, SETVI); assay: as above; settings: phytotoxicity rating 0-100 (0 no damage, 100 complete death), 14 days after application
Method in brief: as §3

[16] = tested on: ivyleaf morningglory (Ipomoea hederacea, IPOHE); assay: as above; settings: phytotoxicity rating 0-100 (0 no damage, 100 complete death), 14 days after application
Method in brief: as §3

[17] = tested on: johnsongrass (Sorghum halepense, SORHA); assay: as above; settings: phytotoxicity rating 0-100 (0 no damage, 100 complete death), 14 days after application
Method in brief: as §3

[18] = tested on: lambsquarters (Chenopodium album, CHEAL); assay: as above; settings: phytotoxicity rating 0-100 (0 no damage, 100 complete death), 14 days after application
Method in brief: as §3

[19] = tested on: large crabgrass (Digitaria sanguinalis, DIGSA); assay: as above; settings: phytotoxicity rating 0-100 (0 no damage, 100 complete death), 14 days after application
Method in brief: as §3

[20] = tested on: redroot pigweed (Amaranthus retroflexus, AMARE); assay: as above; settings: phytotoxicity rating 0-100 (0 no damage, 100 complete death), 14 days after application
Method in brief: as §3

[21] = tested on: sicklepod (Cassia obtusifolia, CASOB); assay: as above; settings: phytotoxicity rating 0-100 (0 no damage, 100 complete death), 14 days after application
Method in brief: as §3

[22] = tested on: velvetleaf (Abutilon theophrasti, ABUTH); assay: as above; settings: phytotoxicity rating 0-100 (0 no damage, 100 complete death), 14 days after application
Method in brief: as §3

[23] = tested on: field corn (Zea mays L., var. Dekalb 535, CORN); assay: Post-emerge test, crop safety; settings: phytotoxicity rating 0-100 (0 no damage, 100 complete death), 14 days after application
Method in brief: as §1

[24] = tested on: upland rice (Oryza sp., var. Tebonnet, RICE); assay: Post-emerge test, crop safety; settings: phytotoxicity rating 0-100 (0 no damage, 100 complete death), 14 days after application
Method in brief: as §1

## COc1c(Cl)cc(F)c(-n2c(=O)cc(C(F)(F)F)n(N)c2=O)c1N [Compound 1-13]
[1]; 63 g ai/ha
  Pre-emerge Herbicidal Activity AMARE (phytotoxicity rating, scale 0-100): 100
[1]; 250 g ai/ha
  Pre-emerge Herbicidal Activity AMARE (phytotoxicity rating, scale 0-100): 100
[2]; 63 g ai/ha
  Pre-emerge Herbicidal Activity ECHCG (phytotoxicity rating, scale 0-100): 90
[2]; 250 g ai/ha
  Pre-emerge Herbicidal Activity ECHCG (phytotoxicity rating, scale 0-100): 100
[3]; 63 g ai/ha
  Pre-emerge Herbicidal Activity AMBEL (phytotoxicity rating, scale 0-100): 100
[3]; 250 g ai/ha
  Pre-emerge Herbicidal Activity AMBEL (phytotoxicity rating, scale 0-100): 100
[4]; 63 g ai/ha
  Pre-emerge Herbicidal Activity SETVI (phytotoxicity rating, scale 0-100): 100
[4]; 250 g ai/ha
  Pre-emerge Herbicidal Activity SETVI (phytotoxicity rating, scale 0-100): 100
[5]; 63 g ai/ha
  Pre-emerge Herbicidal Activity IPOHE (phytotoxicity rating, scale 0-100): 100
[5]; 250 g ai/ha
  Pre-emerge Herbicidal Activity IPOHE (phytotoxicity rating, scale 0-100): 100
[6]; 63 g ai/ha
  Pre-emerge Herbicidal Activity SORHA (phytotoxicity rating, scale 0-100): 95
[6]; 250 g ai/ha
  Pre-emerge Herbicidal Activity SORHA (phytotoxicity rating, scale 0-100): 100
[7]; 63 g ai/ha
  Pre-emerge Herbicidal Activity CHEAL (phytotoxicity rating, scale 0-100): 100
[7]; 250 g ai/ha
  Pre-emerge Herbicidal Activity CHEAL (phytotoxicity rating, scale 0-100): 100
[8]; 63 g ai/ha
  Pre-emerge Herbicidal Activity DIGSA (phytotoxicity rating, scale 0-100): 100
[8]; 250 g ai/ha
  Pre-emerge Herbicidal Activity DIGSA (phytotoxicity rating, scale 0-100): 100
[9]; 63 g ai/ha
  Pre-emerge Herbicidal Activity CASOB (phytotoxicity rating, scale 0-100): 80
[9]; 250 g ai/ha
  Pre-emerge Herbicidal Activity CASOB (phytotoxicity rating, scale 0-100): 100
[10]; 63 g ai/ha
  Pre-emerge Herbicidal Activity ABUTH (phytotoxicity rating, scale 0-100): 100
[10]; 250 g ai/ha
  Pre-emerge Herbicidal Activity ABUTH (phytotoxicity rating, scale 0-100): 100
[11]; 63 g ai/ha
  Pre-emerge crop damage CORN (phytotoxicity rating, scale 0-100): 60
[11]; 250 g ai/ha
  Pre-emerge crop damage CORN (phytotoxicity rating, scale 0-100): 95
[12]; 63 g ai/ha
  Pre-emerge crop damage RICE (phytotoxicity rating, scale 0-100): 95
[12]; 250 g ai/ha
  Pre-emerge crop damage RICE (phytotoxicity rating, scale 0-100): 100
[13]; 63 g ai/ha
  Post-emerge Herbicidal Activity ECHCG: 30
[13]; 250 g ai/ha
  Post-emerge Herbicidal Activity ECHCG: 70
[14]; 63 g ai/ha
  Post-emerge Herbicidal Activity AMBEL: 70
[14]; 250 g ai/ha
  Post-emerge Herbicidal Activity AMBEL: 85
[15]; 63 g ai/ha
  Post-emerge Herbicidal Activity SETVI: 30
[15]; 250 g ai/ha
  Post-emerge Herbicidal Activity SETVI: 90
[16]; 63 g ai/ha
  Post-emerge Herbicidal Activity IPOHE: 100
[16]; 250 g ai/ha
  Post-emerge Herbicidal Activity IPOHE: 100
[17]; 63 g ai/ha
  Post-emerge Herbicidal Activity SORHA: 10
[17]; 250 g ai/ha
  Post-emerge Herbicidal Activity SORHA: 90
[18]; 63 g ai/ha
  Post-emerge Herbicidal Activity CHEAL: 100
[18]; 250 g ai/ha
  Post-emerge Herbicidal Activity CHEAL: 100
[19]; 63 g ai/ha
  Post-emerge Herbicidal Activity DIGSA: 0
[19]; 250 g ai/ha
  Post-emerge Herbicidal Activity DIGSA: 75
[20]; 63 g ai/ha
  Post-emerge Herbicidal Activity AMARE: 100
[20]; 250 g ai/ha
  Post-emerge Herbicidal Activity AMARE: 100
[21]; 63 g ai/ha
  Post-emerge Herbicidal Activity CASOB: 30
[21]; 250 g ai/ha
  Post-emerge Herbicidal Activity CASOB: 70
[22]; 63 g ai/ha
  Post-emerge Herbicidal Activity ABUTH: 100
[22]; 250 g ai/ha
  Post-emerge Herbicidal Activity ABUTH: 100
[23]; 63 g ai/ha
  Post-emerge Herbicidal Activity CORN (crop damage): 20
[23]; 250 g ai/ha
  Post-emerge Herbicidal Activity CORN (crop damage): 80
[24]; 63 g ai/ha
  Post-emerge Herbicidal Activity RICE (crop damage): 30
[24]; 250 g ai/ha
  Post-emerge Herbicidal Activity RICE (crop damage): 80
